Test results taken from patent publication EP0046349A1, “Clavulanic acid derivatives, their preparation and use” (BEECHAM GROUP PLC, priority 1980, dated 1982).

Assays:
Assay type in all cases: cell-based
Klebsiella Aerogenes E70 = experiment: standard MIC synergy test; conditions: Amoxycillin alone, no inhibitor (comparison); unit assumed
Excerpt: (§1) […]

Staph. aureus Russell [1] = experiment: standard MIC synergy test
Excerpt: as §1

Escherichia coli JT39 = experiment: standard MIC synergy test
Excerpt: as §1

Staph. aureus Russell [2] = experiment: standard antibacterial test; set-up: unit not given here; conditions: compound alone
Excerpt: IN A STANDARD ANTIBACTERIAL TEST, THE FOLLOWING DATA WERE OBTAINED

[3] = Amoxycillin alone, no inhibitor (comparison), unit assumed
[4] = Concentration of inhibitor 5.0 μg/ml, MIC of amoxycillin in presence of inhibitor, 'Inhibited' = inhibitor alone inhibits growth
[5] = Concentration of inhibitor 1.0 μg/ml, MIC of amoxycillin in presence of inhibitor, 'Inhibited' = inhibitor alone inhibits growth
[6] = Concentration of inhibitor 5.0 μg/ml, MIC of amoxycillin in presence of inhibitor

Structure (SMILES)	MIC synergy test, Staph. aureus Russell (Staph. aureus Russell [1]; [4])	standard antibacterial test, Staph. Aureus Russell (Staph. aureus Russell [2])	also measured
CC1(C)S[C@@H]2[C@H](NC(=O)[C@H](N)c3ccc(O)cc3)C(=O)N2[C@H]1C(=O)O [Amoxy-cillin, amoxycillin, reference compound]			MIC synergy test, Klebsiella Aerogenes E70 (Klebsiella Aerogenes E70): 1000 µg/mL; MIC synergy test, Staph. aureus Russell (Staph. aureus Russell [1]; [3]): 500 µg/mL; MIC synergy test, Escherichia coli JT39 (Escherichia coli JT39; [3]): 2000 µg/mL
CN(C)C=NC/C=C1\O[C@@H]2CC(=O)N2[C@H]1C(=O)O [Example 1, 9-N-(Dimethylaminomethylene) amino-9-deoxyclavulanic acid]	Inhibited	4.0	
CC(=NC/C=C1\O[C@@H]2CC(=O)N2[C@H]1C(=O)O)NCc1ccccc1 [Example 4, 9-N-[1-(N-benzyl)aminoethylidene]amino-9-deoxyclavulanic acid]	Inhibited	2.0	
NC(=NC/C=C1\O[C@@H]2CC(=O)N2[C@H]1C(=O)O)c1ccccc1 [Example 7, 9 N-(1-aminobenzylidene)amino-9-deoxyclavulanic acid]	Inhibited	8.0	
CC(=NC/C=C1\O[C@@H]2CC(=O)N2[C@H]1C(=O)O)NCCCCCC(=O)OCc1ccccc1 [Example 8, 9-N-[1(N-5-benzyloxycarbonylpentyl)aminoethylidene]amino-9-deoxyclavulanic acid]	Inhibited	8.0	
CC(=NC/C=C1\O[C@@H]2CC(=O)N2[C@H]1C(=O)O)NCCCCCC(=O)O [Example 9, Lithium 9-N-[1-(N-5'Carboxylatopentyl)aminoethylidene]amino-9-deoxyclavlanic acid]		62.5	
CC(=NC/C=C1\O[C@@H]2CC(=O)N2[C@H]1C(=O)O)NCC(=O)O [Example 10, Potassium 9-N-[1-(N-Carboxylatomethyl)aminoethylidene]amino-9-deoxyclavulanic acid]		62.5	
COCCC(N)=NC/C=C1\O[C@@H]2CC(=O)N2[C@H]1C(=O)O [Example 13, 9-N-(1'-amino-3'-methoxypropylidene)amino-9-deoxyclavulanic acid]		16.0	
NC(=NC/C=C1\O[C@@H]2CC(=O)N2[C@H]1C(=O)O)C1CCC1 [Example 20, 9-N-(amino-cyclobutylmethylene) amino-9-deoxyclavulanic acid.]	Inhibited	4.0	MIC synergy test, Escherichia coli JT39 (Escherichia coli JT39; [6]): Inhibited
CCNC(C)=NC/C=C1\O[C@@H]2CC(=O)N2[C@H]1C(=O)O [Example 25]	Inhibited	4.0	
O=C(O)[C@H]1/C(=C/CN=CN2CCCCC2)O[C@@H]2CC(=O)N21 [Example 26, 9-N-(N,N-pentamethyleneaminomethylene) amino-9-deoxyolavulanic acid.]	Inhibited	≤0.5	MIC synergy test, Staph. aureus Russell (Staph. aureus Russell [1]; [5]): Inhibited
CSCC(N)=NC/C=C1\O[C@@H]2CC(=O)N2[C@H]1C(=O)O [Example 28, 9-N-(1'-amino-2'-methylthioethylidene) amino-9-deoxyclavulanic acid.]		2.0	
NC(Cc1cccs1)=NC/C=C1\O[C@@H]2CC(=O)N2[C@H]1C(=O)O [Example 29, 9-N-(1-amino-2-[2'-thienyl]ethylidene) amino-9-deoxyclavulanic acid.]		2.0	

Continued, in another order:

MIC synergy test, Staph. aureus Russell (Staph. aureus Russell [1]; [4])	Structure (SMILES)	standard antibacterial test, Staph. Aureus Russell (Staph. aureus Russell [2])	also measured
Inhibited	CC(N)=NC/C=C1\O[C@@H]2CC(=O)N2[C@H]1C(=O)O [Example 2, 9-N-(1'-aminoethylidene)amino-9-deoxyclavulanic acid]	16.0	
Inhibited	CC(=NC/C=C1\O[C@@H]2CC(=O)N2[C@H]1C(=O)O)NCC(C)C [Example 3, 9-N-[1'-(N-isobutyl)aminoethylidene]amino-9-deoxyclavulanic acid]	4.0	
Inhibited	NC=NC/C=C1\O[C@@H]2CC(=O)N2[C@H]1C(=O)O [Example 5, 9-N-(aminomethylene)amino-9-deoxyclavulanic acid]	4.0	
Inhibited	O=C(O)[C@H]1/C(=C/CN=CNCc2ccccc2)O[C@@H]2CC(=O)N21 [Example 6, 9-N-(N-benzylaminomethylene)amino-9-deoxyclavulanic acid]	2.0	MIC synergy test, Staph. aureus Russell (Staph. aureus Russell [1]; [5]): Inhibited
Inhibited	CNC=NC/C=C1\O[C@@H]2CC(=O)N2[C@H]1C(=O)O [Example 11, 9-N-(N-methylaminomethylene)amino-9-deoxyclavulanic acid]	4.0	
Inhibited	CCCC(N)=NC/C=C1\O[C@@H]2CC(=O)N2[C@H]1C(=O)O [Example 12, 9-N-(1-aminobutylidene)amino-9-deoxyclavulanic acid]	4.0	
Inhibited	CCC(N)=NC/C=C1\O[C@@H]2CC(=O)N2[C@H]1C(=O)O [Example 14, 9-N-(1'aminopropylidene)amino-9-deoxyclavulanic acid]	4.0	
Inhibited	CC(C)C(N)=NC/C=C1\O[C@@H]2CC(=O)N2[C@H]1C(=O)O [Example 16, 9-N-(1 t-amino-2'-methylpropylidene) amino-9-deoxyclavulanic acid.]	4.0	
Inhibited	CCCCC(N)=NC/C=C1\O[C@@H]2CC(=O)N2[C@H]1C(=O)O [Example 18, 9-N-(l-aminopentylidene) amino-9-deoxyclavulanic acid.]	2.0	
Inhibited	NC(=NC/C=C1\O[C@@H]2CC(=O)N2[C@H]1C(=O)O)C1CC1 [Example 19, 9-N-(amino-cyclopropylmethylene) amino-9-deoxyclavulanic acid.]	4.0	MIC synergy test, Escherichia coli JT39 (Escherichia coli JT39; [6]): Inhibited
Inhibited	CCN(C=NC/C=C1\O[C@@H]2CC(=O)N2[C@H]1C(=O)O)CC [Example 21, 9-N-(diethylaminomethylene) amino-9-deoxyclavulanic acid.]	4.0	
Inhibited	CC(=NC/C=C1\O[C@@H]2CC(=O)N2[C@H]1C(=O)O)N(C)C [Example 22, 9-N-[1-(N,N-dimethyl)aminoethylidene] amino-9-deoxyclavulanic acid.]	≤0.5	MIC synergy test, Staph. aureus Russell (Staph. aureus Russell [1]; [5]): Inhibited; MIC synergy test, Escherichia coli JT39 (Escherichia coli JT39; [6]): Inhibited
Inhibited	CNC(=NC/C=C1\O[C@@H]2CC(=O)N2[C@H]1C(=O)O)c1ccccc1 [Example 23]	2.0	MIC synergy test, Staph. aureus Russell (Staph. aureus Russell [1]; [5]): Inhibited
Inhibited	CNC(C)=NC/C=C1\O[C@@H]2CC(=O)N2[C@H]1C(=O)O [Example 24, 9-N-[l-(N-methyl)aminoethylidene] amino-9-deoxyclavulanic acid.]	8.0	
Inhibited	O=C(O)[C@H]1/C(=C/CN=CN2CCCCCC2)O[C@@H]2CC(=O)N21 [Example 27, 9-N-(N,N-hexamethyleneaminomethylene) aimno-9-deoxyclavulanic acid.]	1.0	MIC synergy test, Staph. aureus Russell (Staph. aureus Russell [1]; [5]): Inhibited
Inhibited	O=C(O)[C@H]1/C(=C/CN=C2CCCN2)O[C@@H]2CC(=O)N21 [Example 30, 9-N-(2-pyrrolidylidene) amino-9-deoxyclavulanic acid.]	1.0	MIC synergy test, Staph. aureus Russell (Staph. aureus Russell [1]; [5]): Inhibited
Inhibited	O=C(O)[C@H]1/C(=C/CN=C2CCCCN2)O[C@@H]2CC(=O)N21 [Example 31, 9-N-(2-piperidylidene) amino-9-deoxyclavulanic acid.]	1.0	MIC synergy test, Staph. aureus Russell (Staph. aureus Russell [1]; [5]): Inhibited
